Source: ChEMBL document CHEMBL1926671, “3D-Quantitative structure-activity relationship and docking studies of the tachykinin NK3 receptor” (Bioorg Med Chem Lett, 2011)

Molecular target: T1, Neuromedin-K receptor (Homo sapiens, UniProt P29371)
T1 sequence (P29371 whole entry): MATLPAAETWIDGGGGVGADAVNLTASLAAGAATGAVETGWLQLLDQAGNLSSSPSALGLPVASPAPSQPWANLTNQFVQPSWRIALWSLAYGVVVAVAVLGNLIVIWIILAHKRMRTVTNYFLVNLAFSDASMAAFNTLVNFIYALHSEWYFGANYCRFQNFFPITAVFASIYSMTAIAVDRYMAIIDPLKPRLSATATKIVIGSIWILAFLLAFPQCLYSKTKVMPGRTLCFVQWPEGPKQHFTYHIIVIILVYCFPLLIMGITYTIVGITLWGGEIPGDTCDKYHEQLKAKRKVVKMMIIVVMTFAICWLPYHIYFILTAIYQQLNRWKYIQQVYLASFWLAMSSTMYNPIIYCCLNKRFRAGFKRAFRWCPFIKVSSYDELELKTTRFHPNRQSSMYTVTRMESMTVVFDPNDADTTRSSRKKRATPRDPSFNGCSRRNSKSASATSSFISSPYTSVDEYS
Experiment: Binding affinity to human NK3 receptor expressed in CHO cells
Format: cell-based

Ki: 158 nM
Structure (SMILES): CCCCC(NC(=O)c1cc(-c2ccccc2)nc2ccccc12)c1ccccc1 (stereo unspecified)
